Patent US20020031787A1, “Compositions and methods for reducing autoimmunity” (priority 2000, published 2002)
Where no end group is shown, it is not given here.

System: NOD mice
Conditions: mouse, in vivo

insulin B chain 8-20 amino acid peptide (GSHLVEALYLVCG; ends and bridges not checked; UniProt P01308 32-44, looked up, fragment) [islet cell antigen peptide added to the vaccines]
effect of the vaccines on diabetes when the peptide was added: enhanced
